Reference: PubChem BioAssay (NCI)
Several values for one entry are separate records, joined by “and”; a condition that tells them apart may be missing. Identical values can stand only once.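 Method: 48-hour compound exposure of cells in 96-well plates, five concentrations, linear interpolation of endpoints. At the GI50, growth is halved. TGI: total growth inhibition.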

How the values were obtained:
Test in all cases: DTP human tumour cell line panel, 48 h
TK-10 renal = test system: TK-10 renal
MOLT-4 leukemia = test system: MOLT-4 leukemia
UACC-62 melanoma = test system: UACC-62 melanoma
M14 melanoma = test system: M14 melanoma
OVCAR-4 ovarian = test system: OVCAR-4 ovarian
HCT-15 colon = test system: HCT-15 colon
SN12C renal = test system: SN12C renal
SK-OV-3 ovarian = test system: SK-OV-3 ovarian
RPMI-8226 leukemia = test system: RPMI-8226 leukemia
HOP-62 NSCLC = test system: HOP-62 NSCLC

SMILES | TGI (TK-10 renal) | TGI (MOLT-4 leukemia) | TGI (UACC-62 melanoma) | TGI (M14 melanoma) | TGI (OVCAR-4 ovarian) | TGI (HCT-15 colon) | TGI (SN12C renal) | TGI (SK-OV-3 ovarian) | TGI (RPMI-8226 leukemia) | TGI (HOP-62 NSCLC) | GI50 (TK-10 renal) | GI50 (MOLT-4 leukemia) | GI50 (UACC-62 melanoma) | GI50 (M14 melanoma) | GI50 (OVCAR-4 ovarian) | GI50 (HCT-15 colon) | GI50 (SN12C renal) | GI50 (SK-OV-3 ovarian) | GI50 (RPMI-8226 leukemia) | GI50 (HOP-62 NSCLC)
Cc1ccc2c(c1C)-c1c(ccc(C)c1C)C(=O)C2=O | 9.11 µM | 0.686 µM | 1.68 µM | 2.12 µM | 0.554 µM | 11 µM | 2.73 µM | 8.41 µM | 0.559 µM | 9.32 µM |  |  |  |  |  |  |  |  |  | 
CCC(CC)n1cc(C(=O)NC(=O)NCCCCCOC(=O)CCCCCCCCCCC(=O)OCCCCCNC(=O)NC(=O)c2cn(C(CC)CC)c(=O)[nH]c2=O)c(=O)[nH]c1=O | > 100 µM | > 100 µM | > 100 µM | > 100 µM | > 100 µM | > 100 µM | > 100 µM | > 100 µM | > 100 µM | > 100 µM |  |  |  |  |  |  |  |  |  | 
Cc1cc(C)c2c(c1)Nc1ccccc1P2c1ccccc1 (stereo not given) | > 100 µM | > 100 µM | > 100 µM | > 100 µM | > 100 µM | > 100 µM | > 100 µM | > 100 µM | 26.7 µM | 66.8 µM |  |  |  |  |  |  |  |  |  | 
C=CC1=C[C@@H]2[C@@H]3O[C@]4(CC[C@H](O4)[C@@H](C)C[C@@H](O)C3=O)C[C@H](O)C3=NCC[C@@]32CC1 | 0.00385 µM | 0.112 µM | 0.00412 µM | < 0.00333 µM | 0.00522 µM | < 0.00333 µM | 0.011 µM | 0.00795 µM | < 0.00333 µM | 0.0075 µM | < 0.00333 µM | < 0.00333 µM | < 0.00333 µM | < 0.00333 µM | < 0.00333 µM | < 0.00333 µM | < 0.00333 µM | < 0.00333 µM | < 0.00333 µM | < 0.00333 µM
CC1=CCC(OC(=O)C(C)(C)CCC(O)(C(=O)OC2(C(C)C)CCC3(C)OC3C2)C(C)C)(C(C)C)CC1 (stereo not given) | 1.43 µM | 4.99 µM | 1.11 µM | 1.46 µM | 1.87 µM | 0.688 µM | 0.532 µM | 5.81 µM | 8.85 µM | 1.63 µM | 0.532 µM | 0.131 µM | 0.298 µM | 0.654 µM | 0.608 µM | 0.148 µM | 0.124 µM | 0.692 µM | 0.234 µM | 0.615 µM
COC(=O)C1C2C=CC(C2)C1(C(=O)OC)S(=O)CC12CCC(CC1O)C2(C)C (stereo not given) | > 100 µM | > 100 µM | > 100 µM | > 100 µM | > 100 µM | 37.7 µM | > 100 µM | > 100 µM | > 100 µM | > 100 µM |  |  |  |  |  |  |  |  |  | 
COc1ccc(C(=O)COc2cccc(/C=C3\CSc4ccccc4C3=O)c2)cc1 | 9.79 µM | 19.3 µM | 3.3 µM | 4.01 µM | 9.87 µM | 6.07 µM | 8.31 µM | 45.7 µM | 3.69 µM | 7.6 µM | 2.73 µM | 0.913 µM | 1.72 µM | 2.01 µM | 2.79 µM | 2.08 µM | 2.63 µM | 10.8 µM | 0.342 µM | 2.84 µM
COc1ccc2c(c1)c(-c1nc(-c3c[nH]c4ncccc34)cs1)cn2CCCCN1CCOCC1 | 18 µM | 3.92 µM | 3.93 µM | 3.62 µM | 5.53 µM | 4.14 µM | 4.19 µM | 5.27 µM | 4.72 µM | 4.08 µM | 5.25 µM | 1.86 µM | 1.87 µM | 1.81 µM | 2.21 µM | 1.96 µM | 1.91 µM | 2.37 µM | 1.99 µM | 1.91 µM
COCC1N=C(c2cc(OC)c(OC)c(OC)c2-c2cc3c(cc2C2OCCCO2)OCO3)O[C@H]1c1ccccc1 (stereo not given in full) | > 100 µM | > 100 µM | > 100 µM | > 100 µM | > 100 µM | > 100 µM | > 100 µM | > 100 µM | > 100 µM | > 100 µM |  |  |  |  |  |  |  |  |  | 
O=C(/C=C/c1ccc(Cl)c(Cl)c1)c1ccc(F)cc1 | 94.7 µM | 38 µM | 28.8 µM | 30.5 µM | 51.1 µM | 22.7 µM | 52.2 µM | 83.5 µM | 12.6 µM | > 100 µM |  |  |  |  |  |  |  |  |  | 
O=C1OC(CC(=O)c2ccc(Cl)cc2Cl)C(Cl)=C1Cl (stereo not given) | > 79 µM | 66.7 µM | 40 µM | > 91.9 µM | > 58.4 µM | > 70.6 µM | > 31.6 µM | > 63.4 µM | > 73 µM | > 100 µM |  |  |  |  |  |  |  |  |  | 
O=c1[nH]nc2ccccc2c1Cl | 33 µM | 36.8 µM | 25.6 µM | 25.6 µM | 23.8 µM | 25.3 µM | 34.2 µM | 33.5 µM | 8.87 µM | 40.7 µM |  |  |  |  |  |  |  |  |  | 
CN(C)c1ccc(-c2cc(-c3ccc(Nc4nc(Nc5ccccc5)nc(Nc5ccc(Cl)cc5)n4)cc3)nc(N)n2)cc1 | 38.7 µM | 7.87 µM | 40 µM | 17.6 µM | > 100 µM | > 100 µM | 42.2 µM | > 100 µM | 20 µM | 42.4 µM | 5.68 µM | 1.8 µM | 6.26 µM | 3.65 µM | 5.01 µM | 4.26 µM | 7.52 µM | 18.8 µM | 3.32 µM | 8.01 µM
C=CN1C(=O)OC[C@@H]1c1ccccc1 | > 100 µM | > 100 µM | > 100 µM | > 100 µM | > 100 µM | > 100 µM | > 100 µM | > 100 µM | > 100 µM | > 100 µM |  |  |  |  |  |  |  |  |  | 
c1cc(CCN2CCCCC2)ccn1 | > 100 µM | > 100 µM | > 100 µM | > 100 µM | > 100 µM | > 100 µM | > 100 µM | > 100 µM | > 100 µM | > 100 µM |  |  |  |  |  |  |  |  |  | 
O=C1/C(=C/c2ccccc2F)CNC/C1=C\c1ccccc1F | 8.48 µM and 3.5 µM | 1.76 µM and 3.13 µM | 10.3 µM and 3.72 µM | 3.73 µM and 2.84 µM | 2.98 µM and 1.81 µM | 0.511 µM and 1.16 µM | 2.05 µM and 2.81 µM | 4.01 µM and 3.12 µM | 0.697 µM and 0.563 µM | 2.65 µM and 1.01 µM | 2.92 µM and 1.51 µM | 0.425 µM and 0.738 µM | 6.38 µM and 1.5 µM | 1.16 µM and 1.2 µM | 0.596 µM and 0.385 µM | 0.196 µM and 0.291 µM | 0.837 µM and 0.783 µM | 1.68 µM and 1.58 µM | 0.191 µM and 0.22 µM | 0.53 µM and 0.33 µM
